From PubChem BioAssay AID248 (DTP/NCI, 2004)
“And” between values parts separate entries of the source, which are not always exact repeats. Identical values can stand only once. Inconclusive results and toxic doses are left out. Cut-off read from the data, not from the text of the source: active = T/C of 150% or more; inactive = T/C below 125%.

System: L1210 leukemia ip in BDF1 mice, survival T/C
Test: NCI In Vivo Anticancer Drug Screen. Data for tumor model L1210 Leukemia (intraperitoneal) in B6D2F1 (BDF1) mice
Conditions: endpoint: mean survival time, higher = longer survival
Outline: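 Value reflects the ratio of survival in compound-treated mice to survival in vehicle-treated controls, with both groups carrying the same transplanted tumor.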

[1] = dose: 100.0 mg/kg/injection, schedule: Q01DX009 (ip), vehicle: Klucel (hydroxypropylcellulose) (HPC)
[2] = dose: 100.0 mg/kg/injection, schedule: Q04DX003 (ip), vehicle: Klucel (hydroxypropylcellulose) (HPC)
[3] = dose: 200.0 mg/kg/injection, schedule: Q01DX009 (ip), vehicle: Klucel (hydroxypropylcellulose) (HPC)
[4] = dose: 200.0 mg/kg/injection, schedule: Q04DX003 (ip), vehicle: Klucel (hydroxypropylcellulose) (HPC)
[5] = dose: 400.0 mg/kg/injection, schedule: Q01DX009 (ip), vehicle: Klucel (hydroxypropylcellulose) (HPC)
[6] = dose: 400.0 mg/kg/injection, schedule: Q04DX003 (ip), vehicle: Klucel (hydroxypropylcellulose) (HPC)
[7] = dose: 100.0 mg/kg/injection, schedule: Q01DX001 (ip), vehicle: carboxymethylcellulose (CMC)
[8] = dose: 200.0 mg/kg/injection, schedule: Q01DX001 (ip), vehicle: carboxymethylcellulose (CMC)
[9] = dose: 400.0 mg/kg/injection, schedule: Q01DX001 (ip), vehicle: carboxymethylcellulose (CMC)
[10] = dose: 100.0 mg/kg/injection, schedule: Q01DX009 (ip), vehicle: saline with Tween-80
[11] = dose: 100.0 mg/kg/injection, schedule: Q04DX003 (ip), vehicle: saline with Tween-80
[12] = dose: 200.0 mg/kg/injection, schedule: Q01DX009 (ip), vehicle: saline with Tween-80
[13] = dose: 200.0 mg/kg/injection, schedule: Q04DX003 (ip), vehicle: saline with Tween-80
[14] = dose: 400.0 mg/kg/injection, schedule: Q04DX003 (ip), vehicle: saline with Tween-80
[15] = dose: 50.0 mg/kg/injection, schedule: Q01DX001 (ip), vehicle: saline
[16] = dose: 100.0 mg/kg/injection, schedule: Q01DX001 (ip), vehicle: saline
[17] = dose: 200.0 mg/kg/injection, schedule: Q01DX001 (ip), vehicle: saline
[18] = dose: 400.0 mg/kg/injection, schedule: Q01DX001 (ip), vehicle: saline
[19] = dose: 100.0 mg/kg/injection, schedule: Q01DX001 (ip), vehicle: Klucel (hydroxypropylcellulose) (HPC)
[20] = dose: 200.0 mg/kg/injection, schedule: Q01DX001 (ip), vehicle: Klucel (hydroxypropylcellulose) (HPC)
[21] = dose: 400.0 mg/kg/injection, schedule: Q01DX001 (ip), vehicle: Klucel (hydroxypropylcellulose) (HPC)
[22] = dose: 400.0 mg/kg/injection, schedule: Q01DX009 (ip), vehicle: saline with Tween-80
[23] = dose: 100.0 mg/kg/injection, schedule: Q04DX002 (ip), vehicle: Klucel (hydroxypropylcellulose) (HPC)
[24] = dose: 200.0 mg/kg/injection, schedule: Q04DX002 (ip), vehicle: Klucel (hydroxypropylcellulose) (HPC)
[25] = dose: 50.0 mg/kg/injection, schedule: Q01DX009 (ip), vehicle: saline with Tween-80
[26] = dose: 400.0 mg/kg/injection, schedule: Q04DX002 (ip), vehicle: Klucel (hydroxypropylcellulose) (HPC)
[27] = dose: 100.0 mg/kg/injection, schedule: Q04DX003 (ip), vehicle: saline

Measured: T/C

CCOc1cc[n+](C)c2ccc(C)cc12
inactive: dose: 6.25 mg/kg/injection, schedule: Q04DX002 (ip), vehicle: saline with Tween-80 102 % of control | dose: 12.5 mg/kg/injection, schedule: Q04DX002 (ip), vehicle: saline with Tween-80 98 % of control

O=C(NCCCl)NC1c2ccccc2-c2ccccc21
inactive: [1] 105 % of control | [2] 96 % of control and 89 % of control | [3] 92 % of control | [4] 102 % of control | [5] 106 % of control | [6] 98 % of control and 86 % of control

CN(C)Nc1ncnc2nc[nH]c12
inactive: dose: 12.5 mg/kg/injection, schedule: Q01DX Z (ip), vehicle: carboxymethylcellulose (CMC) 98 % of control | dose: 25.0 mg/kg/injection, schedule: Q01DX Z (ip), vehicle: carboxymethylcellulose (CMC) 104 % of control | dose: 50.0 mg/kg/injection, schedule: Q01DX Z (ip), vehicle: carboxymethylcellulose (CMC) 106 % of control and 115 % of control | dose: 75.0 mg/kg/injection, schedule: Q01DX001 (ip), vehicle: carboxymethylcellulose (CMC) 102 % of control | dose: 100.0 mg/kg/injection, schedule: Q01DX Z (ip), vehicle: carboxymethylcellulose (CMC) 114 % of control and 118 % of control | dose: 150.0 mg/kg/injection, schedule: Q01DX001 (ip), vehicle: carboxymethylcellulose (CMC) 102 % of control | dose: 300.0 mg/kg/injection, schedule: Q01DX001 (ip), vehicle: carboxymethylcellulose (CMC) 110 % of control

Nc1ccc2c(c1)C(=O)CCCC2
inactive: [7] 102 % of control | [8] 104 % of control | [9] 98 % of control

COc1ccc(C(=O)c2ccccc2)c(OC(=O)Nc2cc([N+](=O)[O-])ccc2F)c1
inactive: [2] 95 % of control | [4] 101 % of control | [6] 98 % of control

[NH-]S(=O)(=O)O.[NH-]S(=O)(=O)O.[NH2-].[NH2-].[Pt+4]
inactive: dose: 10.0 mg/kg/injection, schedule: Q01DX009 (ip), vehicle: saline with Tween-80 100 % of control | dose: 20.0 mg/kg/injection, schedule: Q01DX009 (ip), vehicle: saline with Tween-80 90 % of control | dose: 40.0 mg/kg/injection, schedule: Q01DX009 (ip), vehicle: saline with Tween-80 100 % of control

CCSc1ccc2c(cc1=O)C(NC(=S)Nc1ccccc1)CCc1cc(OC)c(OC)c(OC)c1-2 (configuration not stated)
inactive: dose: 100.0 mg/kg/injection, schedule: Q04DX003 (ip), vehicle: carboxymethylcellulose (CMC) 102 % of control | dose: 200.0 mg/kg/injection, schedule: Q04DX003 (ip), vehicle: carboxymethylcellulose (CMC) 107 % of control

COc1ccc(C2(C(=O)O)CCCC2)cc1
inactive: [10] 102 % of control | [11] 103 % of control | [12] 96 % of control | [13] 108 % of control | [14] 97 % of control

CN1NCc2cncnc21
inactive: [15] 97 % of control | [16] 103 % of control | [17] 101 % of control | [18] 103 % of control

C(Cc1ccccc1)=C(CCc1ccccc1)CCc1ccccc1
inactive: dose: 100.0 mg/kg/injection, schedule: Q01DX001 (ip), vehicle: saline with Tween-80 104 % of control | dose: 200.0 mg/kg/injection, schedule: Q01DX001 (ip), vehicle: saline with Tween-80 93 % of control | dose: 400.0 mg/kg/injection, schedule: Q01DX001 (ip), vehicle: saline with Tween-80 93 % of control

CC(=O)NC1CCC2CCCCC2C1 (configuration not stated)
inactive: [19] 97 % of control | [1] 103 % of control | [2] 97 % of control | [20] 101 % of control | [3] 95 % of control | [4] 99 % of control | [21] 101 % of control | [5] 98 % of control | [6] 96 % of control

CC(C)(c1ccc(OCCO)cc1)c1ccc(OCCO)cc1
inactive: [10] 97 % of control | [12] 98 % of control | [22] 93 % of control

O=C(Nc1ccccc1-c1ccc([N+](=O)[O-])cc1)c1cc(Cl)cc(Cl)c1
inactive: [11] 88 % of control | [13] 88 % of control

CCOc1ccc(NC(=O)Oc2ccc(SC)c(C)c2)cc1
inactive: [1] 91 % of control | [3] 91 % of control | [5] 96 % of control

O=C1C=Cc2ccccc2/C1=C/c1nc(-c2ccc(Cl)cc2)oc1O
inactive: [23] 95 % of control | [24] 91 % of control

C[N+](C)(C)c1ccc(C(=O)[O-])cc1
inactive: [15] 97 % of control | [16] 97 % of control | [17] 97 % of control | [18] 103 % of control

Cn1c(N)c(C(=O)CCCc2ccc(N(CCCl)CCCl)cc2)c(=O)n(C)c1=O
inactive: dose: 50.0 mg/kg/injection, schedule: Q01DX001 (ip), vehicle: carboxymethylcellulose (CMC) 102 % of control | [7] 107 % of control | [8] 105 % of control | [9] 102 % of control

Cc1ccc(C2OC2(C(=O)c2ccccc2)c2ccccc2)cc1 (configuration not stated)
inactive: [1] 106 % of control | [2] 96 % of control | [3] 108 % of control | [4] 104 % of control | [5] 92 % of control | [6] 98 % of control

CCCCCN(CCCCC)C(=O)c1ccc([N+](=O)[O-])cc1
inactive: [1] 97 % of control | [2] 100 % of control | [3] 97 % of control | [4] 96 % of control | [5] 94 % of control | [6] 105 % of control

c1ccc2[nH]c(-c3cscn3)nc2c1
inactive: dose: 75.0 mg/kg/injection, schedule: Q04DX003 (ip), vehicle: saline 103 % of control | dose: 150.0 mg/kg/injection, schedule: Q04DX003 (ip), vehicle: saline 103 % of control | dose: 300.0 mg/kg/injection, schedule: Q04DX003 (ip), vehicle: saline 106 % of control

Cn1c(CO)nc2c1c(=O)[nH]c(=O)n2C
inactive: dose: 100.0 mg/kg/injection, schedule: Q01DX001 (ip), vehicle: other 98 % of control | dose: 200.0 mg/kg/injection, schedule: Q01DX001 (ip), vehicle: other 98 % of control | dose: 400.0 mg/kg/injection, schedule: Q01DX001 (ip), vehicle: other 95 % of control

C=CC(=O)OCC(C)([N+](=O)[O-])[N+](=O)[O-]
inactive: [25] 103 % of control | [10] 97 % of control | [11] 103 % of control | [13] 96 % of control

CC(C)=CCOC(N)=O
inactive: [2] 95 % of control | [4] 104 % of control | [6] 109 % of control

ON=C(CSCc1ccccc1)CSCc1ccccc1
inactive: [25] 101 % of control | [10] 101 % of control | [12] 100 % of control | [22] 101 % of control

Cc1ccnc(NC(=O)NC2CCCCC2)c1
inactive: [23] 96 % of control | [24] 101 % of control | [26] 96 % of control

COC(=O)C12CCC(=O)CC1(O)c1ccc(OC)cc1CC2 (configuration not stated)
inactive: [19] 104 % of control | [20] 107 % of control | [21] 107 % of control

O=C(Nc1cccc2ccccc12)Oc1ccc2ccccc2c1
inactive: [23] 96 % of control | [24] 93 % of control | [26] 116 % of control

O=[N+]([O-])c1cccnc1Oc1cc(Cl)c(Cl)cc1Cl
inactive: [10] 107 % of control | [11] 102 % of control | [12] 107 % of control | [13] 93 % of control | [22] 100 % of control | [14] 91 % of control

CCCCCCCCCCCCCCCCCC[n+]1ccc(C(N)=O)cc1
inactive: [27] 91 % of control

CCCCN(CCCC)S(=O)(=O)CCCC
inactive: [27] 91 % of control | dose: 200.0 mg/kg/injection, schedule: Q04DX003 (ip), vehicle: saline 103 % of control | dose: 400.0 mg/kg/injection, schedule: Q04DX003 (ip), vehicle: saline 94 % of control

[N-]=[N+]=NC(c1ccccc1)C(I)c1ccccc1 (configuration not stated)
inactive: [15] 103 % of control | [16] 103 % of control | [17] 108 % of control | [18] 97 % of control
